Lymphocyte counts and EC50 data for five compounds are collected here from patent publication US8697732B2, “Pyridine derivatives” (Actelion Pharmaceuticals Ltd., priority 2006, dated 2014).

The test system of one experiment is circulating lymphocytes. Briefly: Assessment of in vivo efficacy: circulating lymphocytes after oral administration. Particulars: 6 h after oral administration of 10 mg/kg to normotensive male Wistar rats, as compared to vehicle-only group. As to the method:
The efficacy of the compounds of Formula (I) is assessed by measuring the circulating lymphocytes after oral administration of 3 to 30 mg/kg of a compound of Formula (I) to normotensive male Wistar rats. The animals are housed in climate-controlled conditions with a 12 h-light/dark cycle, and have free access to normal rat chow and drinking water. Blood is collected before and 3, 6 and 24 h after drug administration. Full blood is subjected to hematology using Advia Hematology system (Bayer Diagnostics, Zurich, Switzerland).
All data are presented as mean±SEM. Statistical analyses are performed by analysis of variance (ANOVA) using Statistica (StatSoft) and the Student-Newman-Keuls procedure for multiple comparisons. The null hypothesis is rejected when p<0.05.

For experiment [1], the target named is recombinant human S1P1 receptor (Homo sapiens, UniProt P21453). Briefly: GTPγS assay to determine EC50 values. In kind it is biochemical. To be noted: 35S-GTPγS binding, membrane preparations of CHO cells expressing recombinant human S1P1 receptor. As to the method: GTPγS binding assays are performed in 96 well microtiter plates (Nunc, 442587) in a final volume of 200 μl, using membrane preparations of CHO cells expressing recombinant human S1P1 receptor. Assay conditions are 20 mM Hepes (Fluka, 54461), 100 mM NaCl (Fluka, 71378), 5 mM MgCl2 (Fluka, 63064), 0.1% BSA (Calbiochem, 126609), 1 μM GDP (Sigma, G-7127), 2.5% DMSO (Fluka, 41644), 50 pM ^35S-GTPγS (Amersham Biosciences, SJ1320). The pH is 7.4. Test compounds are dissolved and diluted in 100% DMSO and pre-incubated at room temperature for 30 min in 150 μl of the above assay buffer, in the absence of ^35S-GTPγS. After addition of 50 μl of ^35S-GTPγS, the assay is incubated for 1 h at rt. The assay is terminated by transfer of the reaction mixture to a Multiscreen plate (Millipore, MAHFC1H60) using a cell harvester from Packard Biosciences, and the plates are washed with ice-cold 10 mM Na2HPO4/NaH2PO4 (70%/30%), dried, sealed at the bottom and, after addition of 25 μl MicroScint20 (Packard Biosciences, order#6013621), sealed on the top. Membrane-bound ^35S-GTPγS is measured with a TopCount from Packard Biosciences.
EC50 is the concentration of agonist inducing 50% of the maximal specific ^35S-GTPγS binding. Specific binding is determined by subtracting non-specific binding from maximal binding. Maximal binding is the amount of cpm bound to the Multiscreen plate in the presence of 10 μM of S1P. Non-specific binding is the amount of binding in the absence of an agonist in the assay. […] The EC50 values were determined according to the method described above: […]

recombinant human S1P1 receptor, sequence (P21453 whole entry): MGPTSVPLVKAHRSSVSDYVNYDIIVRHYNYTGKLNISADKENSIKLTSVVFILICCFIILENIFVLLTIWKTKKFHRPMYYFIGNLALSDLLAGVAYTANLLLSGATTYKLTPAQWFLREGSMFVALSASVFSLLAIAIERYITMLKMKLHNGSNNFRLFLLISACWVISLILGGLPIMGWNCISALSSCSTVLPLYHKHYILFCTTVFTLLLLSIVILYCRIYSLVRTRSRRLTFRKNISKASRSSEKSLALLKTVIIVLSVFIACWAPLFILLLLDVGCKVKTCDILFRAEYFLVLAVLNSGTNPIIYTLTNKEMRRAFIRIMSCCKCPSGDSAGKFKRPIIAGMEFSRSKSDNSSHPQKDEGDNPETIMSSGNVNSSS

Turning to `CCc1cc(-c2nnc(-c3sc(C)c4c3C[C@@H]3[C@H]4C3(C)C)o2)cc(C)n1` [Example 5, 2-Ethyl-6-methyl-4-[5-((1aS,5aR)-1,1,2-trimethyl-1,1a,5,5a-tetrahydro-3-thia-cyclopropa[a]pentalen-4-yl)-[1,3,4]oxadiazol-2-yl]-pyridine], the Lymphocyte counts in the experiment on circulating lymphocytes is −77%. As to `Cc1cc(-c2nnc(-c3sc(C)c4c3C[C@@H]3[C@H]4C3(C)C)o2)cc(C)n1` [Example 8, 2,6-Dimethyl-4-[5-((1aS,5aR)-1,1,2-trimethyl-1,1a,5,5a-tetrahydro-3-thia-cyclopropa[a]pentalen-4-yl)-[1,3,4]oxadiazol-2-yl]-pyridine], the EC50 in experiment [1] worked out at 3.4 nM.

On to `CCc1cc(-c2noc(-c3sc(C)c4c3CC3C4C3(C)C)n2)cc(C)n1` (centres unmarked) [Example 14, 2-Ethyl-6-methyl-4-[5-(1,1,2-trimethyl-1,1a,5,5a-tetrahydro-3-thia-cyclopropa[a]pentalen-4-yl)-[1,2,4]oxadiazol-3-yl]-pyridine], for which, in experiment [1], the EC50 turned out to be 3.7 nM. On the same count and under the same terms, with `CCc1cc(C=CC(=O)c2sc(C)c3c2CC2C3C2(C)C)cc(C)n1` [Example 1, 3-(2-Ethyl-6-methyl-pyridin-4-yl)-1-((1aS,5aR)-1,1,2-trimethyl-1,1a,5,5a-tetrahydro-3-thia-cyclopropa[a]pentalen-4-yl)-propenone] the figure was 1.3 nM; with `CCc1cc(CCC(=O)c2sc(CC)c3c2CCC(C)(C)C3)cc(C)n1` [Example 4, 1-(3-Ethyl-5,5-dimethyl-4,5,6,7-tetrahydro-benzo[c]thiophen-1-yl)-3-(2-ethyl-6-methyl-pyridin-4-yl)-propan-1-one], 4.6 nM.
